According to patent publication US12364709B2, “Bioavailable poly amines” (AMINEX THERAPEUTICS, INC., priority 2016, dated 2025):
Like-named read-outs stand apart in the source and are kept apart here.

Experiment: 28-day repeat-dose toxicity study, toxicokinetics of AMXT 1501 dicaprate
Type: in vivo, beagle dogs
Settings: both sexes, beagle, dog, plasma, po
Description: AMXT 1501 PK parameters were calculated for all AMXT 1501 dicaprate-dosed animals for the first dose (Day 1) and last dose (Day 28).

## CCCCCCCCCCCCCCCC(=O)NCCCC[C@@H](N)C(=O)NCCCNCCCCNCCCN [AMXT 1501 dicaprate]
8 mg/kg/day, 8 mg/kg/day PO, DFMO 0, Day 1, M+F combined, read-out: AUC0-24 hr Median
  AUC(0-t): 1500 ng·h/mL
8 mg/kg/day, 8 mg/kg/day PO, DFMO 0, Day 1, M+F combined, read-out: Cmax Mean
  Cmax: 95.6 ng/mL
8 mg/kg/day, 8 mg/kg/day PO, DFMO 0, Day 1, M+F combined, read-out: Cmax Median
  Cmax: 115 ng/mL
8 mg/kg/day, 8 mg/kg/day PO, DFMO 0, Day 1, M+F combined, read-out: Tmax Mean
  Tmax: 5.33 h
8 mg/kg/day, 8 mg/kg/day PO, DFMO 0, Day 1, M+F combined, read-out: Tmax Median
  Tmax: 6 h
8 mg/kg/day, 8 mg/kg/day PO, DFMO 0, Day 28, M+F combined, read-out: AUC0-24 hr Mean
  AUC(0-t): 2210 ng·h/mL
8 mg/kg/day, 8 mg/kg/day PO, DFMO 0, Day 28, M+F combined, read-out: AUC0-24 hr Median
  AUC(0-t): 1690 ng·h/mL
8 mg/kg/day, 8 mg/kg/day PO, DFMO 0, Day 28, M+F combined, read-out: AUC0-t Mean
  AUC(0-t): 3390 ng·h/mL
8 mg/kg/day, 8 mg/kg/day PO, DFMO 0, Day 28, M+F combined, read-out: AUC0-t Median
  AUC(0-t): 1900 ng·h/mL
8 mg/kg/day, 8 mg/kg/day PO, DFMO 0, Day 28, M+F combined, read-out: AUC0-∞ Mean
  AUC(0-inf): 3440 ng·h/mL
8 mg/kg/day, 8 mg/kg/day PO, DFMO 0, Day 28, M+F combined, read-out: AUC0-∞ Median
  AUC(0-inf): 1930 ng·h/mL
8 mg/kg/day, 8 mg/kg/day PO, DFMO 0, Day 28, M+F combined, read-out: Cmax Mean
  Cmax: 153 ng/mL
8 mg/kg/day, 8 mg/kg/day PO, DFMO 0, Day 28, M+F combined, read-out: Cmax Median
  Cmax: 127 ng/mL
8 mg/kg/day, 8 mg/kg/day PO, DFMO 0, Day 28, M+F combined, read-out: Tmax Mean
  Tmax: 4.6 h
8 mg/kg/day, 8 mg/kg/day PO, DFMO 0, Day 28, M+F combined, read-out: Tmax Median
  Tmax: 6 h
8 mg/kg/day, 8 mg/kg/day PO, DFMO 0, Day 28, M+F combined, read-out: t1/2 Mean (converted)
  half-life: 19.7 h
8 mg/kg/day, 8 mg/kg/day PO, DFMO 0, Day 28, M+F combined, read-out: t1/2 Median (converted)
  half-life: 18.7 h
8 mg/kg/day, 8 mg/kg/day PO, DFMO 50 mg/kg/day, Day 28, M+F combined, read-out: AUC0-24 hr Mean
  AUC(0-t): 2120 ng·h/mL
8 mg/kg/day, 8 mg/kg/day PO, DFMO 50 mg/kg/day, Day 28, M+F combined, read-out: AUC0-24 hr Median
  AUC(0-t): 2250 ng·h/mL
8 mg/kg/day, 8 mg/kg/day PO, DFMO 50 mg/kg/day, Day 28, M+F combined, read-out: AUC0-t Mean
  AUC(0-t): 3010 ng·h/mL
8 mg/kg/day, 8 mg/kg/day PO, DFMO 50 mg/kg/day, Day 28, M+F combined, read-out: AUC0-t Median
  AUC(0-t): 2970 ng·h/mL
8 mg/kg/day, 8 mg/kg/day PO, DFMO 50 mg/kg/day, Day 28, M+F combined, read-out: AUC0-∞ Mean
  AUC(0-inf): 3070 ng·h/mL
8 mg/kg/day, 8 mg/kg/day PO, DFMO 50 mg/kg/day, Day 28, M+F combined, read-out: AUC0-∞ Median
  AUC(0-inf): 3020 ng·h/mL
8 mg/kg/day, 8 mg/kg/day PO, DFMO 50 mg/kg/day, Day 28, M+F combined, read-out: Cmax Mean
  Cmax: 152 ng/mL
8 mg/kg/day, 8 mg/kg/day PO, DFMO 50 mg/kg/day, Day 28, M+F combined, read-out: Cmax Median
  Cmax: 171 ng/mL
8 mg/kg/day, 8 mg/kg/day PO, DFMO 50 mg/kg/day, Day 28, M+F combined, read-out: Tmax Mean
  Tmax: 6.67 h
8 mg/kg/day, 8 mg/kg/day PO, DFMO 50 mg/kg/day, Day 28, M+F combined, read-out: Tmax Median
  Tmax: 6 h
8 mg/kg/day, 8 mg/kg/day PO, DFMO 50 mg/kg/day, Day 28, M+F combined, read-out: t1/2 Mean (converted)
  half-life: 18 h
8 mg/kg/day, 8 mg/kg/day PO, DFMO 50 mg/kg/day, Day 28, M+F combined, read-out: t1/2 Median (converted)
  half-life: 20.3 h
8 mg/kg/day, 8 mg/kg/day PO, DFMO 200 mg/kg/day, Day 1, M+F combined, read-out: AUC0-24 hr Mean
  AUC(0-t): 1470 ng·h/mL
8 mg/kg/day, 8 mg/kg/day PO, DFMO 200 mg/kg/day, Day 1, M+F combined, read-out: AUC0-24 hr Median
  AUC(0-t): 1390 ng·h/mL
8 mg/kg/day, 8 mg/kg/day PO, DFMO 200 mg/kg/day, Day 1, M+F combined, read-out: Cmax Mean
  Cmax: 101 ng/mL
8 mg/kg/day, 8 mg/kg/day PO, DFMO 200 mg/kg/day, Day 1, M+F combined, read-out: Cmax Median
  Cmax: 86.5 ng/mL
8 mg/kg/day, 8 mg/kg/day PO, DFMO 200 mg/kg/day, Day 1, M+F combined, read-out: Tmax Mean
  Tmax: 9 h
8 mg/kg/day, 8 mg/kg/day PO, DFMO 200 mg/kg/day, Day 1, M+F combined, read-out: Tmax Median
  Tmax: 9 h
16 mg/kg/day, 16 mg/kg/day PO, DFMO 0, Day 1, M+F combined, read-out: AUC0-24 hr Mean
  AUC(0-t): 2500 ng·h/mL
16 mg/kg/day, 16 mg/kg/day PO, DFMO 0, Day 1, M+F combined, read-out: AUC0-24 hr Median
  AUC(0-t): 1750 ng·h/mL
16 mg/kg/day, 16 mg/kg/day PO, DFMO 0, Day 1, M+F combined, read-out: Cmax Mean
  Cmax: 155 ng/mL
16 mg/kg/day, 16 mg/kg/day PO, DFMO 0, Day 1, M+F combined, read-out: Cmax Median
  Cmax: 113 ng/mL
16 mg/kg/day, 16 mg/kg/day PO, DFMO 0, Day 1, M+F combined, read-out: Tmax Mean
  Tmax: 6 h
16 mg/kg/day, 16 mg/kg/day PO, DFMO 0, Day 1, M+F combined, read-out: Tmax Median
  Tmax: 6 h
16 mg/kg/day, 16 mg/kg/day PO, DFMO 0, Day 28, M+F combined, read-out: AUC0-24 hr Mean
  AUC(0-t): 4590 ng·h/mL
16 mg/kg/day, 16 mg/kg/day PO, DFMO 0, Day 28, M+F combined, read-out: AUC0-24 hr Median
  AUC(0-t): 4890 ng·h/mL
16 mg/kg/day, 16 mg/kg/day PO, DFMO 0, Day 28, M+F combined, read-out: AUC0-t Mean
  AUC(0-t): 7970 ng·h/mL
